Values of other authors, collected in patent publication US20050287205A1, “Dietary supplement compositions” (priority 2004, published 2005).

Assays:
[1] = tested on: spontaneously hypertensive rats
[2] = tested on: liver and skeletal muscle glycogen; settings: acetic acid administration to mammals; promotes recovery from fatigue
[3] = with water, ethyl alcohol, and diethyl ether
renin = settings: spontaneously hypertensive rats

CC(=O)O [acetic acid]
blood pressure [1]: significantly reduces
glycogen repletion in liver and skeletal muscle [2]: enhances glycogen repletion in liver and skeletal muscle
miscibility [3]: miscible (mixable) in all proportions
renin activity (renin): significantly reduces
